This is an account of results in patent US8470829B2 (priority 2004, dated 2013).

Where two headings read alike, the source gives them in different places. Some results are limits rather than exact numbers.

The target of one series is androgen receptor (Homo sapiens, UniProt P10275). The settings on record: at a concentration of 10 μmol/L; cited from earlier work.
Series [1] deals with T1, human androgen receptor (Homo sapiens, UniProt P10275).
T1 construct: expressed in transfected cells
T1 sequence (P10275 1-920): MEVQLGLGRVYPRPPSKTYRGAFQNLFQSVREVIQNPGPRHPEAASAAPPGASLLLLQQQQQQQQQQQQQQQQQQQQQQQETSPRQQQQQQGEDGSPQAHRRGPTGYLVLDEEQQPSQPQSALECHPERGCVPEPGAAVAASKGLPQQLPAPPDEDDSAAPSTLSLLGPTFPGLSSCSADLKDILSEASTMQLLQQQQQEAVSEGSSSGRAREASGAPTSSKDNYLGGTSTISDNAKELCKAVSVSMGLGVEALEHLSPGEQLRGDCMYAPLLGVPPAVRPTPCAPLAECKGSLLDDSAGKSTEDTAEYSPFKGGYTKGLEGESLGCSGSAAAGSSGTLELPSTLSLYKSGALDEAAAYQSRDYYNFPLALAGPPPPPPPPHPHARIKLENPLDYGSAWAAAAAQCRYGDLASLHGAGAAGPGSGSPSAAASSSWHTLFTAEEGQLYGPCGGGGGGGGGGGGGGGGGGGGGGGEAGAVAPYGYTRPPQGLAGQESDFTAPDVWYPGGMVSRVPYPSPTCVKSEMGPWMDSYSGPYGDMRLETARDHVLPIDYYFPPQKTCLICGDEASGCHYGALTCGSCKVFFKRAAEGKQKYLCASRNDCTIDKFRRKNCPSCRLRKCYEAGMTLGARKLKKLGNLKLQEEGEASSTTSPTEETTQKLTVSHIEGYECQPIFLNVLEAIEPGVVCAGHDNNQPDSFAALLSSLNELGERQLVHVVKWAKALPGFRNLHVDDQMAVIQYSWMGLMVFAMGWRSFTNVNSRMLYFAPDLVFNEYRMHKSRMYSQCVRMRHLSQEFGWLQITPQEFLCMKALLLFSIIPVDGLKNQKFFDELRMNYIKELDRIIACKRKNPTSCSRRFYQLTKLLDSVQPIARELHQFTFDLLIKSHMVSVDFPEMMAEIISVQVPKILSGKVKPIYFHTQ
The experiment in a line: Measurement of agonist effect on androgen receptor (reporter gene assay, 11A11B2 cells). It counts as cell-based. The settings on record: compound concentration showing a transcription activity of 5% (0.1 nmol/L DHT = 100%, assay medium alone = 0%), 48 hours. On the technique in general: In a reporter assay the amount or activity of a reporter protein is the signal.

The conditions of series [2]: prostate cancer patients treated with flutamide; cited from earlier work.
Series [3] addresses T1, human androgen receptor. Kind of series: Investigation of antagonist effect on androgen receptor (reporter gene assay, 11A11B2 cells, with DHT). Type of series: cell-based.
Another series deals with castrated rats. The settings on record: continuously administered to castrated rats for two weeks; cited from earlier work.
Setting [4] is: with 0.1 nmol/L DHT, transcription activity rate of Test Example 1 subtracted, 11A11B2 cells, 48 hours, read-out: IC50.

With `CC(C)(O)C(=O)Nc1ccc([N+](=O)[O-])c(C(F)(F)F)c1` [Comparative Example 4, hydroxyflutamide], the “androgen receptor transcription activity” value at androgen receptor is “increase”. At human androgen receptor [1], this molecule gave an EC5 of 0.01 µM. For the same molecule, the “concentration in the blood” value in series [2] is given as “several”.

In the case of `CCOC(=O)Nc1cc(N2C(=O)N(c3ccc(C#N)c(C(F)(F)F)c3)C(=O)C2(C)C)ccc1Cl` [Example 13, {2-chloro-5-[3-(4-cyano-3-trifluoromethylphenyl)-5,5-dimethyl-2,4-dioxoimidazolidin-1-yl]phenyl}carbamic acid ethyl ester], the melting point (commonly the temperature, or range, at which the solid turns liquid) fell in the range of 155 to 157 °C. The EC5 on human androgen receptor [1] was more than 10 µM. Besides, the concentration for half-maximal inhibition (IC50) (commonly the concentration needed to halve the response being measured) at human androgen receptor [3] (setting [4]) stood at 200 nM.

Consider `CC1(C)C(=O)N(c2ccc(C#N)c(C(F)(F)F)c2)C(=S)N1c1ccc(NC(=O)OCCO)nc1` [Example 60, {5-[3-(4-cyano-3-trifluoromethylphenyl)-5,5-dimethyl-4-oxo-2-thioxoimidazolidin-1-yl]pyridin-2-yl}carbamic acid 2-hydroxyethyl ester], for which, at human androgen receptor [1], the EC5 is more than 10 µM. Further, the concentration for half-maximal inhibition (IC50) at human androgen receptor [3] (setting [4]) was 300 nM.

Take `CN(C)CCNC(=O)Nc1nc2cc(N3C(=S)N(c4ccc(C#N)c(Cl)c4)C(=O)C3(C)C)ccc2s1` [Example 61, 1-{5-[3-(3-chloro-4-cyanophenyl)-5,5-dimethyl-4-oxo-2-thioxoimidazolidin-1-yl]benzothiazol-2-yl}-3-(2-dimethylaminoethyl)urea]: the EC5 at human androgen receptor [1] was more than 10 µM. The molecule also returned an IC50 against human androgen receptor [3] of 300 nM.

For the molecule `CC1(C)C(=O)N(c2ccc(C#N)c(Cl)c2)C(=S)N1c1ccc2sc(NC(=O)NCCO)nc2c1` [Example 63, 1-{5-[3-(3-chloro-4-cyanophenyl)-5,5-dimethyl-4-oxo-2-thioxoimidazolidin-1-yl]benzothiazol-2-yl}-3-(2-hydroxyethyl)urea], the EC5 on human androgen receptor [1] was more than 10 µM. Further, at human androgen receptor [3], the IC50 was 300 nM.

For the molecule `CN(C)CCOC(=O)Nc1nc2cc(N3C(=S)N(c4ccc(C#N)c(Cl)c4)C(=O)C3(C)C)ccc2s1` [Example 64, {5-[3-(3-chloro-4-cyanophenyl)-5,5-dimethyl-4-oxo-2-thioxoimidazolidin-1-yl]benzothiazol-2-yl}carbamic acid 2-dimethylaminoethyl ester], the EC5 on human androgen receptor [1] is more than 10 µM. The IC50 on human androgen receptor [3] (setting [4]) stood at 200 nM.

As to `CC1(C)C(=O)N(c2ccc(C#N)c(Cl)c2)C(=S)N1c1ccc2sc(NC(=O)OCC(O)CO)nc2c1` (centres unmarked) [Example 65, {5-[3-(3-chloro-4-cyanophenyl)-5,5-dimethyl-4-oxo-2-thioxoimidazolidin-1-yl]benzothiazol-2-yl}carbamic acid 2,3-dihydroxypropyl ester], on human androgen receptor [1], the EC5 was more than 10 µM. Also, on human androgen receptor [3] (setting [4]), the half-inhibitory concentration (IC50) is 200 nM.

As for `CC1(C)C(=O)N(c2ccc(C#N)c(Cl)c2)C(=S)N1c1ccc2sc(NC(=O)OCCO)nc2c1` [Example 66, {5-[3-(3-chloro-4-cyanophenyl)-5,5-dimethyl-4-oxo-2-thioxoimidazolidin-1-yl]benzothiazol-2-yl}carbamic acid 2-hydroxyethyl ester], the EC5 on human androgen receptor [1] is 6 µM. For the same molecule, half-maximal inhibition on human androgen receptor [3] (IC50) required 100 nM.

`CC1(C)C(=O)N(c2ccc(C#N)c(Cl)c2)C(=S)N1c1cccc(S(N)(=O)=O)c1` [Example 68, 3-[3-(3-chloro-4-cyanophenyl)-5,5-dimethyl-4-oxo-2-thioxoimidazolidin-1-yl]benzenesulfonamide] registered an EC5 at human androgen receptor [1] of more than 10 µM. The 50% inhibitory concentration (IC50) on human androgen receptor [3] (setting [4]) came to 400 nM.

As for `CN(C)CCOC(=O)Nc1ccc(N2C(=S)N(c3ccc(C#N)c(Cl)c3)C(=O)C2(C)C)cn1` [Example 69, {5-[3-(3-chloro-4-cyanophenyl)-5,5-dimethyl-4-oxo-2-thioxoimidazolidin-1-yl]pyridin-2-yl}-carbamic acid 2-dimethylaminoethyl ester], on human androgen receptor [1], the EC5 was more than 10 µM. Moreover, the half-maximal inhibitory concentration (IC50) on human androgen receptor [3] is 500 nM.

On to `CC1(C)C(=O)N(c2ccc(C#N)c(C(F)(F)F)c2)C(=S)N1c1ccc(NC(=O)OCC(O)CO)nc1` (centres unmarked) [Example 70, {5-[3-(4-cyano-3-trifluoromethylphenyl)-5,5-dimethyl-4-oxo-2-thioxoimidazolidin-1-yl]pyridin-2-yl}-carbamic acid 2,3-dihydroxypropyl ester], for which the EC5 at human androgen receptor [1] is more than 10 µM. The IC50 against human androgen receptor [3] was determined as 500 nM.

Consider `CC(=O)O[C@]1(C(C)=O)CC[C@H]2[C@@H]3C=C(Cl)C4=CC(=O)CC[C@]4(C)[C@H]3CC[C@@]21C` [chlormadinone acetate], for which, in the series on castrated rats, the “weight of the prostate gland” value is “increase”.

`CC(=O)O[C@]1(C(C)=O)CC[C@H]2[C@@H]3C=C(Cl)C4=CC(=O)[C@@H]5C[C@@H]5[C@]4(C)[C@H]3CC[C@@]21C` [cyproterone acetate]: the “weight of the prostate gland” value in the series on castrated rats is on record as “increase”.
